Consider eleven molecules from patent US12599672B2, “KRAS proteolysis targeting chimeras” (PAQ Therapeutics Inc., priority 2023, dated 2026).

Format in all cases: cell-based
Assay [1] concerns the target T1, KRAS G12D (Homo sapiens, UniProt P01116, G12D).
T1 construct: AsPc-1-KRAS (G12D)-HiBit-KI cell (Pharmaron); host or cells: AsPc-1-KRAS (G12D)-HiBit-KI cells (HiBiT knock-in at the endogenous KRAS locus)
Put plainly: KRAS G12D HiBit assay. To be noted: AsPc-1-KRAS (G12D)-HiBit-KI cell, compound treatment for 24 hours; for DC50: absolute DC50. In outline:
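HiBiT luminescence, detected by adding lytic buffer, substrate and LgBiT protein, served as the KRAS G12D read-out. Compounds, serially diluted 3-fold over 10 points from 0.3 mM DMSO stock, were on cells for 24 h; percent inhibition normalized to cells given 0.1% DMSO only.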

In assay [2] the target is T2, KRAS (Homo sapiens, UniProt P01116).
T2 construct: endogenous in cells; host or cells: KE39 (KRAS amplified) cells
The assay can be described thus: KRASamp MSD assay. To be noted: KE39 (KRAS amplified) cells, treated with test compounds for 24 hr, MSD readout of KRAS degradation. In outline:
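Degradation DC50 derived by curve fitting, with KRAS levels quantified by MSD electrochemiluminescence (capture/detection antibodies, recombinant WT KRAS standard). Lysates prepared from KE39 cells (KRAS amplified) exposed to test compounds for 24 hr.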

The target of assay [3] is T3, KRAS G12V (Homo sapiens, UniProt P01116, G12V).
T3 construct: SW620-KRAS (G12V)-HiBit-KI cell (Pharmaron); host or cells: SW620-KRAS (G12V)-HiBit-KI cells (HiBiT knock-in at the endogenous KRAS locus)
The assay can be described thus: KRAS G12V HiBit assay. To be noted: SW620-KRAS (G12V)-HiBit-KI cells, compound treatment for 24 hours, class symbols. In outline: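 Luminescence from lytic Nano-Glo HiBiT detection with LgBiT read KRAS G12V levels after 24 h compound exposure. Dilutions were 10-point, 3-fold, from a 0.3 mM DMSO stock. Degradation activity was normalised to cells given 0.1% DMSO alone.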
In general terms: The HiBiT peptide binds its large partner to form an active luciferase.

The mark [4] stands for this setting: numeric bounds given in place of class symbols.

Where only a bound is given, the exact number is not on record here.

T3 sequence (P01116 1-188 isoform P01116-2 G12V): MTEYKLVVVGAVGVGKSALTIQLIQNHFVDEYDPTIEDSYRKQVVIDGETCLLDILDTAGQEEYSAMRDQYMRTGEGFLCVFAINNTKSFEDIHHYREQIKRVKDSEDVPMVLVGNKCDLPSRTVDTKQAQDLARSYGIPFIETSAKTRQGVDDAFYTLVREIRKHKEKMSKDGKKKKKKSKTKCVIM
T1 sequence (P01116 1-188 isoform P01116-2 G12D): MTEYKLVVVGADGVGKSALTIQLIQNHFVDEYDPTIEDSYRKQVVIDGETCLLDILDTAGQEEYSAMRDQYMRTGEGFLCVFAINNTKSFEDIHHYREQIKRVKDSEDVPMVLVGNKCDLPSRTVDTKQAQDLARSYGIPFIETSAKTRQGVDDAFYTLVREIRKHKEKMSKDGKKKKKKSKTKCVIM
T2 sequence (P01116 1-188 isoform P01116-2): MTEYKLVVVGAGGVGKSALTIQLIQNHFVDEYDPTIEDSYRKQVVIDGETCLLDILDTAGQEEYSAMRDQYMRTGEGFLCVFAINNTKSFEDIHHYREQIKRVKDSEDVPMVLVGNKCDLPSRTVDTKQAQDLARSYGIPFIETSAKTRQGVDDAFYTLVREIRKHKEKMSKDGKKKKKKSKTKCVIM

For `CCc1c(F)ccc2cc(O)cc(-c3ncc4c(N5CCC[C@@](C)(O)C5)nc(OC[C@@]56CCCN5[C@H](COC(=O)N5CCC(C#Cc7ccc8c(c7)n(C)c(=O)n8C7CCC(=O)NC7=O)CC5)CC6)nc4c3F)c12` (stereo partly drawn) [Compound 404, ((3S,7aS)-7a-(((7-(8-ethyl-7-fluoro-3-hydroxynaphthalen-1-yl)-8-fluoro-4-((R)-3-hydroxy-3-methylpiperidin-1-yl)pyrido[4,3-d]pyrimidin-2-yl)oxy)methyl)hexahydro-1H-pyrrolizin-3-yl)methyl 4-((1-(2,6-dioxopiperidin-3-yl)-3-methyl-2-oxo-2,3-dihydro-1H-benzo[d]imidazol-5-yl)ethynyl)piperidine-1-carboxylate], the DC50 in assay [1] (setting [4]) was more than 100 nM; in assay [2], 1 to 10 nM; in assay [3], less than 10 nM.

As to `C#Cc1c(F)ccc2cccc(-c3ncc4c(N5CCC[C@@](C)(O)C5)nc(OCC5(CN6CCC7(CC6)CN(c6ccc8c(c6)n(C)c(=O)n8C6CCC(=O)NC6=O)C7)CC5)nc4c3F)c12` (some centres unmarked) [Compound 40], the results for the DC50 in assay [1] (class symbols), in assay [2] and in assay [3] were more than 300 nM, not below 10 nM and more than 100 nM, respectively.

As to `CCc1c(F)ccc2cc(O)cc(-c3ncc4c(N5CCC[C@@](C)(O)C5)nc(OC[C@]56CCCN5[C@H](COC(=O)NC5CCN(c7ccc8c(c7)n(C)c(=O)n8C7CCC(=O)NC7=O)CC5)CC6)nc4c3F)c12` (stereo partly drawn) [Compound 308, ((3S,7aR)-7a-(((7-(8-ethyl-7-fluoro-3-hydroxynaphthalen-1-yl)-8-fluoro-4-((R)-3-hydroxy-3-methylpiperidin-1-yl)pyrido[4,3-d]pyrimidin-2-yl)oxy)methyl)hexahydro-1H-pyrrolizin-3-yl)methyl (1-(1-(2,6-dioxopiperidin-3-yl)-3-methyl-2-oxo-2,3-dihydro-1H-benzo[d]imidazol-5-yl)piperidin-4-yl)carbamate], the DC50 was more than 100 nM in assay [1] (setting [4]), less than 1 nM in assay [2] and 10 to 100 nM in assay [3].

As for `C#Cc1c(F)ccc2cc(O)cc(-c3ncc4c(N5CCC[C@@](C)(O)C5)nc(OC[C@@]56CCCN5[C@H](COC(=O)N5CCC(OCC#Cc7ccc8c(c7)n(C)c(=O)n8C7CCC(=O)NC7=O)CC5)CC6)nc4c3F)c12` (stereo partly drawn) [Compound 373, ((3S,7aS)-7a-(((7-(8-ethynyl-7-fluoro-3-hydroxynaphthalen-1-yl)-8-fluoro-4-((R)-3-hydroxy-3-methylpiperidin-1-yl)pyrido[4,3-d]pyrimidin-2-yl)oxy)methyl)hexahydro-1H-pyrrolizin-3-yl)methyl 4-((3-(1-(2,6-dioxopiperidin-3-yl)-3-methyl-2-oxo-2,3-dihydro-1H-benzo[d]imidazol-5-yl)prop-2-yn-1-yl)oxy)piperidine-1-carboxylate], the values for the DC50 in assay [1] (class symbols), in assay [2] and in assay [3] were less than 100 nM, 1 to 10 nM and less than 10 nM, respectively.

On to `CCc1c(F)ccc2cc(O)cc(-c3ncc4c(N5CCC[C@@](C)(O)C5)nc(OC[C@@]56CCCN5[C@H](COC(=O)N5CCC7(CC5)CC(CN5CCC(c8ccc9c(c8)n(C)c(=O)n9C8CCC(=O)NC8=O)CC5)C7)CC6)nc4c3F)c12` (stereo partly drawn) [Compound 417, ((3S,7aS)-7a-(((7-(8-ethyl-7-fluoro-3-hydroxynaphthalen-1-yl)-8-fluoro-4-((R)-3-hydroxy-3-methylpiperidin-1-yl)pyrido[4,3-d]pyrimidin-2-yl)oxy)methyl)hexahydro-1H-pyrrolizin-3-yl)methyl 2-((4-(1-(2,6-dioxopiperidin-3-yl)-3-methyl-2-oxo-2,3-dihydro-1H-benzo[d]imidazol-5-yl)piperidin-1-yl)methyl)-7-azaspiro[3.5]nonane-7-carboxylate], for which the DC50 in assay [1] (class symbols) is less than 100 nM; in assay [2], less than 1 nM; in assay [3], less than 10 nM.

Turning to `CCc1c(F)ccc2cc(O)cc(-c3ncc4c(N5CCC[C@@](C)(O)C5)nc(OC[C@@]56CCCN5[C@H](COC(=O)N5CCC(CN7CCC(c8cccc9c8n(C)c(=O)n9C8CCC(=O)NC8=O)CC7)CC5)CC6)nc4c3F)c12` (stereo partly drawn) [Compound 440, ((3S,7aS)-7a-(((7-(8-ethyl-7-fluoro-3-hydroxynaphthalen-1-yl)-8-fluoro-4-((R)-3-hydroxy-3-methylpiperidin-1-yl)pyrido[4,3-d]pyrimidin-2-yl)oxy)methyl)hexahydro-1H-pyrrolizin-3-yl)methyl 4-((4-(1-(2,6-dioxopiperidin-3-yl)-3-methyl-2-oxo-2,3-dihydro-1H-benzo[d]imidazol-4-yl)piperidin-1-yl)methyl)piperidine-1-carboxylate], the DC50 in assay [1] (class symbols) is less than 100 nM; in assay [2] it was 1 to 10 nM; in assay [3], less than 10 nM.

In the case of `C#Cc1c(F)ccc2cc(O)cc(-c3ncc4c(N5CCC[C@@](C)(O)C5)nc(OC[C@@]56CCCN5[C@H](COC(=O)N5CCC(CN7CCC(c8cc9c(cc8F)n(C8CCC(=O)NC8=O)c(=O)n9C)CC7)CC5)CC6)nc4c3F)c12` (stereo partly drawn) [Compound 407, ((3S,7aS)-7a-(((7-(8-ethynyl-7-fluoro-3-hydroxynaphthalen-1-yl)-8-fluoro-4-((R)-3-hydroxy-3-methylpiperidin-1-yl)pyrido[4,3-d]pyrimidin-2-yl)oxy)methyl)hexahydro-1H-pyrrolizin-3-yl)methyl 4-((4-(1-(2,6-dioxopiperidin-3-yl)-6-fluoro-3-methyl-2-oxo-2,3-dihydro-1H-benzo[d]imidazol-5-yl)piperidin-1-yl)methyl)piperidine-1-carboxylate], the DC50 in assay [1] (class symbols) is less than 100 nM; in assay [2] it was less than 1 nM; in assay [3], less than 10 nM.

For the molecule `CCc1c(F)ccc2cc(O)cc(-c3ncc4c(N5CCCCCC5)nc(OC[C@@]56CCCN5[C@H](COC(=O)N5CCC7(CC5)CC(N5CCC(c8ccc9c(c8)n(C)c(=O)n9C8CCC(=O)NC8=O)CC5)C7)CC6)nc4c3F)c12` (stereo partly drawn) [Compound 344, ((3S,7aS)-7a-(((4-(azepan-1-yl)-7-(8-ethyl-7-fluoro-3-hydroxynaphthalen-1-yl)-8-fluoropyrido[4,3-d]pyrimidin-2-yl)oxy)methyl)hexahydro-1H-pyrrolizin-3-yl)methyl 2-(4-(1-(2,6-dioxopiperidin-3-yl)-3-methyl-2-oxo-2,3-dihydro-1H-benzo[d]imidazol-5-yl)piperidin-1-yl)-7-azaspiro[3.5]nonane-7-carboxylate], the DC50 was more than 100 nM in assay [1] (setting [4]), 1 to 10 nM in assay [2] and more than 100 nM in assay [3].

Turning to `CCc1c(F)ccc2cc(O)cc(-c3ncc4c(N5CCC[C@@](C)(O)C5)nc(OC[C@@]56CCCN5[C@H](COC(=O)N5CCC(CC7CCN(c8ccc9c(c8)n(C)c(=O)n9C8CCC(=O)NC8=O)CC7)CC5)CC6)nc4c3F)c12` (stereo partly drawn) [Compound 98, [(3S,8S)-8-[[7-(8-ethyl-7-fluoro-3-hydroxy-1-naphthyl)-8-fluoro-4-[(3R)-3-hydroxy-3-methyl-1-piperidyl]pyrido[4,3-d]pyrimidin-2-yl]oxymethyl]-1,2,3,5,6,7-hexahydropyrrolizin-3-yl]methyl 4-[[1-[1-(2,6-dioxo-3-piperidyl)-3-methyl-2-oxo-benzimidazol-5-yl]-4-piperidyl]methyl]piperidine-1-carboxylate], the DC50 in assay [1] (class symbols) was less than 100 nM; in assay [2], less than 1 nM; in assay [3] it was less than 10 nM. Moreover, the Dmax in assay [1] (class symbols) is more than 50%.

On to `C#Cc1c(F)ccc2cc(O)cc(-c3ncc4c(N5CCC[C@@](C)(O)C5)nc(OCC5(CN6CCN(CC7CCN(c8ccc9c(c8)n(C)c(=O)n9C8CCC(=O)NC8=O)CC7)CC6)CC5)nc4c3F)c12` (stereo partly drawn) [Compound 14, 3-[5-[4-[[4-[[1-[[7-(8-Ethynyl-7-fluoro-3-hydroxy-1-naphthyl)-8-fluoro-4-[(3R)-3-hydroxy-3-methyl-1-piperidyl]pyrido[4,3-d]pyrimidin-2-yl]oxymethyl]cyclopropyl]methyl]piperazin-1-yl]methyl]-1-piperidyl]-3-methyl-2-oxo-benzimidazol-1-yl]piperidine-2,6-dione], for which the DC50 in assay [1] (class symbols) was less than 100 nM; in assay [2] it was less than 1 nM; in assay [3] it was less than 10 nM. The Dmax in assay [1] (class symbols) was more than 50%.

As for `Cn1c(=O)n(C2CCC(=O)NC2=O)c2ccc(C3CCN(C4CC5(CCN(C(=O)OC[C@@H]6CC[C@]7(COc8nc(N9CCC[C@@](C)(O)C9)c9cnc(-c%10cc(O)cc%11ccc(F)cc%10%11)c(F)c9n8)CCCN67)CC5)C4)CC3)cc21` (stereo partly drawn) [Compound 438, ((3S,7aS)-7a-(((8-fluoro-7-(7-fluoro-3-hydroxynaphthalen-1-yl)-4-((R)-3-hydroxy-3-methylpiperidin-1-yl)pyrido[4,3-d]pyrimidin-2-yl)oxy)methyl)hexahydro-1H-pyrrolizin-3-yl)methyl 2-(4-(1-(2,6-dioxopiperidin-3-yl)-3-methyl-2-oxo-2,3-dihydro-1H-benzo[d]imidazol-5-yl)piperidin-1-yl)-7-azaspiro[3.5]nonane-7-carboxylate], the figures for the DC50 in assay [1] (class symbols), in assay [2] and in assay [3] were less than 100 nM, less than 1 nM and less than 10 nM, respectively.
